In series [1] the test system is Human promyelocytic leukemia HL-60 cells. Briefly: Cell differentiation of HL-60 cells, nitroblue tetrazolium (NBT) reduction / morphology. It is filed as cell-based. The method, then:
Human promyelocytic leukemia HL-60 cells were cultured in RPMI-1640 medium supplemented by 10% heat-inactivated calf serum and 100 U/ml of penicillin plus 100 μg/ml of streptomycin. The flasks containing cells and medium were incubated in an incubator with 5% CO2 at 37° C. Log phase cells were seeded into the medium at a concentration of 1.2×10^5to 1.4×10^5 cells per ml and cultured in flasks containing 5 ml of medium. Each group consisted of three flasks. Different concentrations of coumarin-retinoids were added. At intervals following the addition of coumarin-retinoids to the cultures, a small portion of cells was removed and live cells were counted under a light microscope using a dye-exclusionmethod with trypan blue. Cell differentiation was judged in terms of morphology and nitroblue tetrazolium (NBT) reduction.
For a determination of NBT reducing activity, a portion of the coumarin-retinoid-treated cells was removed at intervals following treatment and centrifuged. After centrifugation, 0.5 ml of 0.1% NBT (containing 100 ng TPA) was added to each tube. The contents of the test tubes were then incubated for 1 hour at 37° C. Cell smears were prepared from the cell sediment and stained using the Wright-Giemsa technique. For each smear prepared, 200 cells were isolated for examination under a light microscope with an oil immersion lens. Cells stained with blue-black granules were considered NBT-positive cells. The 50% differentiation or effective concentration (ED50 or EC50) is shown in terms of molar (M) concentration of the […] tested.
For a determination of cell morphology, a cell smear was prepared at intervals following treatment of cells for each coumarin-retinoid concentration group using the Wright-Giemsa stain technique. Stained cells were counted and classified under a light microscope with an oil immersion lens. After treatment with coumarin-retinoids, the morphological development of HL-60 cells proceeded toward mature granulocytes. This development was manifested by decreased cell volume; a lower nuclei to cytoplasm ratio; smaller or missing nuclei; concentration of chromatin; and the appearance of a certain proportion of intermediate and late granuloblasts (progranulocytes), elongated rod granulocytes, and granulocytes with branched nuclei.
(§1) The protocols of Examples 14 and 21 were used, for the NBT and MTT assays, respectively.

The test system of series [2] is lipid peroxidation of rat liver microsome. Description: Inhibition of Fe+2/Cys induced lipid peroxidation of rat liver microsome. It is filed as biochemical. The method, then:
Lipid peroxidation was induced by adding 1 mM FeSO4 and 10 mM cysteine to the microsome fraction of rat liver with the incubations being carried out at 37° C. for 30 minutes in a reaction mixture containing 10 mM phosphate buffer (pH 7.4). The reaction was terminated by the addition of 0.3 ml of 20% trichloroacetic acid solution. Thiobarbituric acid was then added and the mixture was boiled for 10 minutes. After cooling the test tubes under running tap water, the optical density at 532 nm was measured. Lipid peroxidation in both the treated groups and the control group was expressed in nmol MDA/mg protein. The percentage inhibition indicates the anti-oxidation properties of the coumarin retinoids tested.
Background: Liver microsomes are a subcellular fraction often used to study metabolism.

A further series concerns HL-60 cells. Description: MTT assay, inhibition of HL-60 cells. In kind it is cell-based, human. Conditions: HL-60, Table 15. The method, then:
Human cancer cell lines (KB, A2780, MCF-7, HL-60, A549) were used. For a monolayer culture, 0.5 ml of trypsin solution ([…]) was added to the flasks for digestion. Microtiter plates (96 well) were used for the cell culture and 200 μl of cell suspension (1200 tumor cells) were placed in each well and incubated at 37° C. for 24 hours. Following the addition of the test compound, the control and treated flasks were placed in a CO2 incubator for 5 day culture. For the MTT assay, 200 μl of MTT solution (5 mg in 10 ml of phosphate buffer) plus the medium were added and incubated for another 4 hours. Following incubation, the supernatant was discarded and 200 μl of DMSO was added to each well. With a mild agitation the OD values were determined by the MR 700 Elisa at 570 nm (reference wavelength was 450 nm). The ED50 of the compound and tumor cell survival rate [formula] as percent inhibition were calculated.
as §1
Background: Tetrazolium dyes change colour on reduction, which living cells bring about.

The subject of series [3] is Ornithine decarboxylase (ODC). Briefly: Croton oil induced ornithine decarboxylase (ODC) activity in mouse epidermis. In kind it is in vivo. Conditions: ICR mice, single dose pretreatment; FIG. 1, n=3. The method, then: ICR mice (6-8 weeks old) were pretreated with a single dose of coumarin retinoid. On the third day, the animals received a topical application of 0.2 ml of 1% croton oil in acetone. All animals were sacrificed five hours after the croton oil treatment and the epidermis was separated by a brief heat treatment at 52° C. for 30 seconds and minced in a blender. The cell suspension and broth were separated by a centrifugation at 30,000×g for 30 seconds and the supernatant was obtained. Ornithine decarboxylase (ODC) enzyme activity was determined by measuring the release of CO2 from L-(^14 C)-ornithine and expressed as nmole CO2 /30 min/mg protein and the results for coumarin retinoid I-10 and I-6 are shown in FIG. 1. […] ODC activity is a critical parameter for monitoring cancer chemoprevention or promotion.

The test system of series [4] is croton oil induced ear edema in mice. Briefly: Croton oil induced ear edema in mice. It is filed as in vivo. The method, then: ICR mice (body weight 18-20 grams) were used. Each group consisted of 10 mice. After three dosage treatments, the left ears of the mice in both the treated group and the control group were painted with 2% croton oil in 0.05 ml ether. All the mice were sacrificed six hours later and the ears of both sides were punched by a corneal knife and weighed, the difference of the ear weight of both sides for each mouse was calculated. The t- Student test was used for statistical calculation. Croton oil induced ear edema is a classical assay for evaluation of cancer promotion.

The test system of series [5] is bone abnormalities in mouse fetus. Description: Bone abnormalities in mouse fetus. It is filed as in vivo. The method, then: (§2) Female mice were examined by vaginal smear the morning after being caged with male mice, and if sperm or a vaginal plug was discovered, then the mice were determined to be pregnant. The retinoids were administered at the dosage indicated starting on the seventh day of pregnancy and continued once a day for the next ten days. On the 20th day after the female mice were determined to be pregnant, they were sacrificed by cervical dislocation. Both sides of the uterus were checked and the number of living embryos, dead embryos, and absorbed embryos were counted. The living embryos were further examined for bone abnormalities.
After the embryos became transparent, they were dissected and their skeletons were checked by observation under a microscope.

A further series deals with chondrosarcoma. Briefly: Growth of chondrosarcoma in rats. In kind it is in vivo. The following applies: for Body Weight final: in g (unit assumed). The source says: Transplantable chondrosarcomas obtained from Dr. Trown, Hoffman--La Roche Institute of Molecular Biology and Wistar rats obtained from the Breeding Center of Experimental Animals, Chinese Academy of Medical Sciences were used. According to the routine transplantation protocol as described in Cancer Treatment Reports 60(11):1647-1653 (1976) where the small pieces of chondrosarcoma tumor were implanted subcutaneously in the right inguinal region of rats using a trocar. Tumor-bearing rats were randomized to a control group and a treated group. Each group consisted of ten rats. […] Sixty days after transplantation, the rats were sacrificed and the tumor weight was determined. The inhibition rate was calculated according to the following formula: [formula]

The test system of the next series is fetus absorption in mice. Description: Effect on fetus absorption in mice. It is filed as in vivo. The method, then: as §2

Turning to `CC(=O)c1cc2ccc(OC(=O)/C=C(C)/C=C/C=C(C)/C=C/C3=C(C)CCCC3(C)C)c(C(=O)O)c2oc1=O` [Compound I-5], the “NBT (+) %” value in series [1] (10^-4 M) amounted to 69%; in series [1] (10^-5 M), 89%; in series [1] (10^-7 M), 41%. Moreover, the “Inhibition (%) of lipid peroxidation” value in series [2] (1 μM) came out at 7.3%; in series [2] (10 μM) it was 16.6%; in series [2] (100 μM), 36.6%. Besides, the “Lipid Peroxidation” value came out at 1.95 ± 0.18 μM MDA/mg protein in series [2] (10 μM, n = 3, p < 0.05) and 1.43 ± 0.16 μM MDA/mg protein in series [2] (100 μM, n = 3, p < 0.01).

For the compound `CC1=C(/C=C/C(C)=C/C=C/C(C)=C/C(=O)Oc2ccc3c(C)cc(=O)oc3c2)C(C)(C)CCC1` [Compound I-32, 4-methyl-7-retinoyloxy-coumarin], the EC50 in the series with HL-60 cells was determined as 11 µM; in series [1] (HL-60, Table 15, read-out: NBT ED50), 13 µM.

`CC1=C(/C=C/C(C)=C/C=C/C(C)=C/C(=O)Oc2ccc3c(C)cc(=O)oc3c2OC(=O)/C=C(C)/C=C/C=C(C)/C=C/C2=C(C)CCCC2(C)C)C(C)(C)CCC1` [Compound I-36, 4-methyl-7,8-diretinoyloxy-coumarin] registered an EC50 in the series on HL-60 cells (Homo sapiens) of 3.2 µM.

Regarding `CC1=C(/C=C/C(C)=C/C=C/C(C)=C/C(=O)Oc2ccc3c(C)cc(=O)oc3c2C)C(C)(C)CCC1` [Compound I-30], the EC50 in the series on HL-60 cells (Homo sapiens) was > 10 µM.

With `CC(=O)c1cc2cc(Cl)c(OC(=O)/C=C(C)/C=C/C=C(C)/C=C/C3=C(C)CCCC3(C)C)cc2oc1=O` [Compound I-6], the “inhibition of croton oil induced ODC activity” value in series [3] is given as “significantly inhibited the ODC activity induced by croton oil”. In addition, the “NBT (+) %” value in series [1] (10^-4 M) came out at 96%; in series [1] (10^-5 M) it was 81%; in series [1] (10^-6 M), 78%; in series [1] (10^-7 M), 31%; in series [1] (10^-8 M) it was 2%. The “Ear Edema (x ± SD)” value turned out to be 13.4 ± 3.1 mg in series [4] (50 mg/kg) and 15.1 ± 2.7 mg in series [4] (100 mg/kg). Moreover, the figures for the “IR (%)” value in series [4] (50 mg/kg) and in series [4] (100 mg/kg) were 19% and 9%, respectively. For the same compound, the “Inhibition (%) of lipid peroxidation” value is 9.6% in series [2] (20 μM) and 13.5% in series [2] (200 μM). In addition, the “Lipid Peroxidation” value in series [2] (200 μM, n = 3, p < 0.05) was determined as 2.03 ± 0.16 μM MDA/mg protein.

Take `CC(=O)c1cc2c(OC(=O)/C=C(C)/C=C/C=C(C)/C=C/C3=C(C)CCCC3(C)C)cc(OC(=O)/C=C(C)/C=C/C=C(C)/C=C/C3=C(C)CCCC3(C)C)cc2oc1=O` [Compound I-10]: the “Delayed Calcification, Occipital delay/fetus number” value is 22/66 in series [5] (20 mg/kg) and 15/81 in series [5] (40 mg/kg). In addition, the “Delayed Calcification, Sternum delay/fetus number” value in series [5] (20 mg/kg) was 14/66; in series [5] (40 mg/kg), 21/81. Besides, in the series on chondrosarcoma (5 mg/kg P.O. (Table 13)), the “Inhibition rate (%)” value is on record as 14.8%. For the same compound, the results for the “Tumor Weight” value in the series with chondrosarcoma (5 mg/kg P.O. (Table 13)), in the series on chondrosarcoma (10 mg/kg P.O.) and in the series on chondrosarcoma (20 mg/kg P.O.) were 12.1 grams, 12.8 grams and 8.2 grams, respectively. In addition, the Animals final is 10 in the series on chondrosarcoma (5 mg/kg P.O., initial 10 (Table 13)); 9 with chondrosarcoma (10 mg/kg P.O., initial 10); 9 in the series with chondrosarcoma (20 mg/kg P.O., initial 10). The “Body Weight final” value in the series on chondrosarcoma (5 mg/kg P.O., initial 97.8 (Table 13)) was 258.4; in the series on chondrosarcoma (10 mg/kg P.O., initial 98.2) it was 248.0; in the series on chondrosarcoma (20 mg/kg P.O., initial 97.4), 253.1. In addition, in series [3], the “inhibition of croton oil induced ODC activity” value is “significantly inhibited the ODC activity induced by croton oil”. The “NBT (+) %” value in series [1] (6.4 × 10^-6 M) is recorded as 99%; in series [1] (6.4 × 10^-7 M), 96%; in series [1] (6.4 × 10^-8 M) it was 82%; in series [1] (6.4 × 10^-9 M) it was 33%; in series [1] (6.4 × 10^-10 M) it was 10%. The “Fetus Absorption, absorbed number/implanted number” value in the series on fetus absorption in mice (20 mg/kg once a day from day 7 of pregnancy) was 0/104; in the series with fetus absorption in mice (40 mg/kg once a day from day 7 of pregnancy), 0/107. In addition, the “Ear Edema (x ± SD)” value turned out to be 14.2 ± 2.3 mg in series [4] (50 mg/kg) and 11.3 ± 3.0 mg in series [4] (100 mg/kg). The “IR (%)” value in series [4] (50 mg/kg) is reported as 14%; in series [4] (100 mg/kg), 32%.

As to `CC1=C(/C=C/C(C)=C/C=C/C(C)=C/C(=O)Oc2cc(=O)oc3c(C)cccc23)C(C)(C)CCC1` [Compound I-29], the EC50 with HL-60 cells (Homo sapiens) was 1.9 µM.

In the case of `CC1=C(/C=C/C(C)=C/C=C/C(C)=C/C(=O)Oc2cc(=O)oc3ccc(C(C)(C)C)cc23)C(C)(C)CCC1` [Compound I-28, 4-retinoyloxy-6-t-butyl-coumarin], the EC50 in the series on HL-60 cells (Homo sapiens) is > 10 µM.

For the origin of these results see patent publication US5968940A, “Retinoids and methods of use of same” (priority 1996, dated 1999).
